Assays:
[1] = system: MAGE-11 mRNA; assay: MAGE-11 mRNA by real-time PCR in ECC-1 cells; type: cell-based, human; settings: for change in MAGE-11 mRNA levels: 100 Units/ml hCG, 10 nM progesterone, 10 nM DHT or 10 ng/ml EGF
Protocol: (§1) For MAGE-11 and AR mRNA in the human endometrial ECC-1 and Ishikawa cell lines, cells were passed 4 days prior to each experiment into medium without phenol red containing 5% charcoal stripped serum (Atlanta Biologicals, Lawrenceville, Ga.). […] RNA was extracted using RNeasy Plus Mini kit (Qiagen, Valencia, Calif.) and cDNA prepared from 4 μg total RNA as above. β-Glucuronidase (GusB) forward primer 5′-[…]-3′ (SEQ ID NO:4) and reverse primer 5′-[…]-3′ (SEQ ID NO:5) amplify a 65 by region coding for amino acid residues 120-140. The 5′-[…]-3′ (SEQ ID NO:6) GusB probe overlaps the exon 2 and 3 boundary. PCR was carried out in 20 μl reactions containing cDNA from 0.4 μg total RNA, 4 μl LightCycler TaqMan Master mix (Roche, Indianapolis, Ind.) and 0.5 μl 20× TaqMan Mix (Applied Biosystems, Foster City, Calif.) for AR or MAGE-11, or 0.5 μM primer and 0.2 μM probe for GusB. PCR reactions were 1 cycle at 95° C. for 10 min followed by 55 cycles of 95° C. for 15 sec, 60° C. for 25 sec and 72° C. for 1 sec in a Roche Lightcycler. […] Results were averaged from duplicates of 6 or 10 cm dishes of ECC-1 or Ishikawa cell cultures.

[2] = system: Flag-MAGE-11; settings: COS cells, with wild-type AR, 2 and 10 nM DHT, 24 h
[3] = system: MAGE-11 mRNA; assay: MAGE-11 mRNA by real-time PCR in Ishikawa cells; type: cell-based, human; settings: for change in MAGE-11 mRNA levels: 100 Units/ml hCG, 10 nM progesterone, 10 nM DHT or 10 ng/ml EGF
Protocol: as §1

[4] = system: PR-B; assay: PR immunoblot in ECC-1 cells; type: cell-based, human; settings: 10 nM E2 for 48 h
Protocol: (§2) Immunoblot analysis. MAGE-11, AR, PR and ERα protein levels in ECC-1 (2×10^6/6 cm dish) and Ishikawa cells (4×10^6/10 cm dish) were determined by immunoblot. Cells were plated in medium without phenol red containing 5% charcoal stripped serum after culturing in the same media for 4 days. Cells were treated, washed and harvested in cold phosphate buffered saline containing 1 mM dithiothreitol, 1 mM phenylmethylsulfonyl fluoride, 5 μg/ml leupeptin, 5 μg/ml pepstatin A and 5 μg/ml aprotinin, and solubilized in buffer containing 1% Triton X-100, 0.15 M NaCl, 0.5 mM EDTA, 1% sodium deoxycholate, 0.1% SDS, 50 mM Tris-HCl, pH 7.4 and protease inhibitors listed above. […] Protein concentration was determined by BioRad assay using bovine serum albumin as standard.

[5] = system: MAGE-11 protein; assay: MAGE-11 immunoblot in Ishikawa cells; type: cell-based, human; settings: 10 nM E2, 48 h
Protocol: as §2

[6] = system: PR-B; assay: PR immunoblot in Ishikawa cells; type: cell-based, human; settings: 10 nM E2 for 48 h
Protocol: as §2

[7] = system: MAGE-11 mRNA; assay: MAGE-11 mRNA by real time RT-PCR in LNCaP cells; type: cell-based, human
[8] = system: AR mRNA; assay: AR mRNA by real-time PCR in ECC-1 cells; type: cell-based, human
Protocol: as §1

C[C@]12CCC(=O)C[C@@H]1CC[C@@H]1[C@@H]2CC[C@]2(C)[C@@H](O)CC[C@@H]12 [DHT, dihydrotestosterone]
change in MAGE-11 mRNA levels ([1]; ECC-1 cells): unchanged
effect on MAGE-11 protein levels [2]: declined
change in MAGE-11 mRNA levels [3]: unchanged

C[C@]12CC[C@@H]3c4ccc(O)cc4CC[C@H]3[C@@H]1CC[C@@H]2O [E2, 17β-estradiol]
effect on PR-B levels [4]: increased
effect on ~67 kDa MAGE-11 protein level [5]: declined
effect on PR-B levels [6]: increased
effect on cyclic-AMP induction of MAGE-11 mRNA [7]: not inhibited
time required for inhibitory effect on MAGE-11 mRNA ([1]; ECC-1 cells): more than 6 h
effect on increase in MAGE-11 mRNA levels during culture ([1]; ECC-1 cells, 0.01 nM E2, dose response, 48 h): partial inhibition
effect on increase in MAGE-11 mRNA levels during culture ([1]; ECC-1 cells, 10 nM E2, 72 h culture in phenol red-free, charcoal stripped serum medium): blocked
effect on cAMP induced increase in MAGE-11 mRNA ([1]; ECC-1 cells, 10 nM E2 with 2 mM dibutyryl-cAMP, greater extent than in Ishikawa cells): inhibited
concentration required to partially inhibit MAGE-11 expression relative to that required to increase AR expression (fold less) ([1]; endometrial cell lines): ~100 fold
effect on cAMP induced increase in MAGE-11 mRNA ([3]; 10 nM E2 with dibutyryl-cAMP, 48 h, lesser extent than in ECC-1 cells): inhibited
increase in AR mRNA levels ([8]; 10 nM E2): ~3 fold
E2 concentration required to increase AR mRNA ([8]; dose response, 48 h): 1 nM

C[C@]12CC[C@@H]3c4ccc(O)cc4C[C@@H](CCCCCCCCC[S+]([O-])CCCC(F)(F)C(F)(F)F)[C@H]3[C@@H]1CC[C@@H]2O (stereo partly shown) [ICI-182,780]
effect on MAGE-11 mRNA levels ([1]; ECC-1 cells, 1 μM ICI-182,780 in the absence and presence of E2 (0.1 nM), 48 h): increased
effect on E2 induced increase in AR mRNA ([8]; 1 μM ICI-182,780): blocked

C=C[C@@]1(C)CC(=O)[C@]2(O)[C@@]3(C)[C@@H](O)CCC(C)(C)[C@@H]3[C@H](O)[C@H](OC(C)=O)[C@@]2(C)O1 [forskolin]
increase in MAGE-11 mRNA levels ([1]; ECC-1 cells, 50 μM): ~4 fold
increase in MAGE-11 mRNA levels ([3]; 50 μM): ~4 fold

CC(=O)[C@H]1CC[C@H]2[C@@H]3CCC4=CC(=O)CC[C@]4(C)[C@H]3CC[C@]12C [progesterone]
MAGE-11 mRNA with progesterone after E2 pretreatment ([1]; ECC-1 cells, pretreatment with 10 nM E2 for 48 h (data not shown)): no increase
change in MAGE-11 mRNA levels ([1]; ECC-1 cells): unchanged
change in MAGE-11 mRNA levels [3]: unchanged
MAGE-11 mRNA with progesterone after E2 pretreatment ([3]; pretreatment with 10 nM E2 for 48 h (data not shown)): no increase

EGF: EGF growth factor, used at 10 ng/ml
change in MAGE-11 mRNA levels ([1]; ECC-1 cells): unchanged
change in MAGE-11 mRNA levels [3]: unchanged

Reference: patent publication US20100150930A1, “MAGE-11 AS A MARKER FOR ENDOMETRIAL RECEPTIVITY TO EMBRYO TRANSPLANTATION AND A MARKER AND THERAPEUTIC TARGET IN CASTRATION-RECURRENT PROSTATE CANCER” (The University of North Carolina at Chapel Hill, priority 2007, published 2010)
